{
  "source": "patent US20190247376A1",
  "about": "“NICOTINIC ACETYLCHOLINE RECEPTOR AGONIST ATTENUATES ILC2-DEPENDENT AIRWAY HYPERREACTIVITY” (University of Southern California, priority 2016, published 2019)",
  "key": {"[1]": {"tested_on": "Rag2−/− mice", "assay": "Alternaria alternata-induced AHR in Rag2-deficient mice", "format": "in vivo, mouse", "conditions": "four consecutive days", "source_text": "FIGS. 6A-6C: α7nAChR agonist inhibits Alternaria-induced AHR. (FIG. 6A) Rag2-deficient mice intranasally received an extract of Alternaria alternata with or without α7nAChR agonist on days 1-4 according to scheme FIG. 6A. Measurement of lung function and BALF analysis followed on day 5. (FIG. 6B) Lung resistance. (FIG. 6C) Total number of eosinophils in BALF. Total number of lung ILC2s. Data are representative of at least four independent experiments and are presented as means±SEM (n=4; Student's t test *, p<0.05; ***, p<0.001).\nIt has been previously reported that Alternaria alternata can induce AHR^40. Applicants further explored the anti-inflammatory effects of α7nAChR agonist in ILC2-mediated AHR with this clinically relevant allergen. Rag2^−/− mice were i.n. administered Alternaria alternata extract with or without α7nAChR agonist for four consecutive days (FIG. 6A). […] Accordingly, the number of eosinophils in BALF and lung ILC2s were increased in Alternaria-treated mice. Meanwhile, α7nAChR agonist treatment abolished eosinophils and ILC2s in the lung (FIG. 6C).\nMice were intranasally (i.n.) administered carrier-free recombinant mouse IL-33 (BioLegend, San Diego Calif., 0.5 µg per mouse in 50 µL) with or without […] of α7nAChR agonist (kindly provided by Lin Chen) on three consecutive days. Mice were intranasally (i.n.) administered carrier-free recombinant mouse IL-25 (BioLegend, San Diego Calif., 5 µg per mouse in 50 µL) with or without […] of α7nAChR agonist on three consecutive days. For Alternaria alternata experiments, mice were i.n. administered Alternaria alternata (Greer Labs, Lenoir, N.C., 100 μg per mouse in 50 μL) with or without 125 µg α7nAChR agonist for four consecutive days. One day after the last challenge, mice were anesthetized using i.p. injection of ketamine (10 mg mL^−1) and xylazine (1 mg mL^−1). […] Maximum lung resistance (RL) and minimum compliance (Cdyn) values were recorded during a three-minute period after each methacholine challenge."}, "[2]": {"tested_on": "Rag2 deficient mice", "assay": "IL-33-induced ILC2-mediated AHR and airway inflammation in Rag2-deficient mice", "format": "in vivo, mouse", "method": "FIGS. 3A-3H: α7nAChR agonist treatment ameliorates ILC2s mediated AHR. (FIG. 3A) Rag2-deficient mice were intranasally challenged with recombinant mouse IL-33 or PBS and also received α7nAChR agonist (125 μg) or PBS on days 1-3 according to scheme 3A. Measurement of lung function and analyses of bronchoalveolar lavage fluid (BALF) and lung histology followed on day 4. (FIGS. 3B-3C) Lung resistance and dynamic compliance. (FIG. 3D) Total number of cells and eosinophils in BALF. (FIG. 3E) Hematoxylin and eosin-stained lung sections (×200). Scale bars represent 50 μm. (FIG. 3F) Quantification of lung histopathology shown as number of inflammatory cells per 250 μm^2 and thickness of airway epithelium (μm). (FIG. 3G) Total number and frequency of lung ILC2s. (FIG. 3H) Percentage of IL-5^+ and IL-13^+ lung ILC2s determined by flow cytometry. Data are representative of at least four independent experiments and are presented as means±SEM (n=8; Student's test *, p<0.05; **, p<0.01; ***, p<0.001).\nAs reported previously^6-9,11,12,34,35, the IL-5 and IL-13 cytokines produced by activated ILC2s are essential for eosinophilic inflammation and AHR development. Applicants investigated whether the attenuated ILC2 function by α7nAChR stimulation in vitro could result in inhibition of ILC2-mediated AHR and allergic inflammation. Rag2 deficient mice (devoid of T and B cells) were given intranasal (i.n.) rm-IL-33, with or without α7nAChR agonist for three consecutive days (FIG. 3A). As IL-33 administration specifically induces ILC2s, thereby causing AHR, with this model Applicants can readily explore the effect of an α7nAChR agonist in ILC2-mediated AHR. One day after the last challenge, lung function was evaluated by direct measurements of lung resistance (RL) and dynamic compliance (Cdyn), as described in the materials and methods section. […] These findings concur with the reduction of AHR and eosinophil counts in BALF (FIGS. 3B-3D). Thus, α7nAChR agonist represses IL-5 and IL-13 production, eosinophil recruitment, and ILC2-dependent AHR.\nMice were intranasally (i.n.) administered carrier-free recombinant mouse IL-33 (BioLegend, San Diego Calif., 0.5 µg per mouse in 50 µL) with or without […] of α7nAChR agonist (kindly provided by Lin Chen) on three consecutive days. Mice were intranasally (i.n.) administered carrier-free recombinant mouse IL-25 (BioLegend, San Diego Calif., 5 µg per mouse in 50 µL) with or without […] of α7nAChR agonist on three consecutive days. For Alternaria alternata experiments, mice were i.n. administered Alternaria alternata (Greer Labs, Lenoir, N.C., 100 μg per mouse in 50 μL) with or without 125 µg α7nAChR agonist for four consecutive days. One day after the last challenge, mice were anesthetized using i.p. injection of ketamine (10 mg mL^−1) and xylazine (1 mg mL^−1). Measurements of airway resistance and dynamic compliance were conducted with the Fine Pointe RC System (Buxco Research Systems, Wilmington, N.C.), in which mice were mechanically ventilated using a modified version as previously described^36,67. Mice were sequentially challenged with aerosolized PBS (baseline), followed by increasing doses of methacholine. Maximum lung resistance (RL) and minimum compliance (Cdyn) values were recorded during a three-minute period after each methacholine challenge.\nAfter measurements of AHR, the trachea was canulated and the lungs lavaged three times with 1 mL ice cold PBS to collect BALF cells as previously described^68. […]"}, "[3]": {"conditions": "i.n. Alternaria alternata extract, agonist"}, "[4]": {"conditions": "i.n. rm-IL-33, agonist 125 μg days 1-3, day 4"}, "[5]": {"conditions": "i.n. rm-IL-33, agonist 125 μg days 1-3, measured day 4"}, "[6]": {"conditions": "i.n. rm-IL-33, agonist 125 μg days 1-3, vs untreated mice"}},
  "data": [
    {"compound": "COc1ccc(/C=C2\\CCCN=C2c2cccnc2)c(OC)c1", "note": "[GTS-21, 3-[(3E)-3-[(2,4-dimethoxyphenyl)methylidene]-5,6-dihydro-4H-pyridin-2-yl]pyridine]", "values": [
      {"measurement": "AHR (lung resistance)", "setting": "[1]; i.n. Alternaria alternata extract 100 μg, agonist 125 μg", "result": "did not develop AHR"},
      {"measurement": "eosinophils in BALF", "setting": "[1]; [3]", "result": "abolished"},
      {"measurement": "lung ILC2s", "setting": "[1]; [3]", "result": "abolished"},
      {"measurement": "absolute number of lung ILC2s", "setting": "[2]; [4]", "result": "significantly suppressed"},
      {"measurement": "airway wall thickness (lung histology)", "setting": "[2]; [4]", "result": "prevented"},
      {"measurement": "eosinophilic infiltration in BALF", "setting": "[2]; [4]", "result": "decreased"},
      {"measurement": "frequency of lung ILC2s", "setting": "[2]; [4]", "result": "significantly suppressed"},
      {"measurement": "infiltrated cells (lung histology)", "setting": "[2]; [4]", "result": "prevented"},
      {"measurement": "total cell counts (TCC) in BALF", "setting": "[2]; [4]", "result": "decreased"},
      {"measurement": "dynamic compliance (Cdyn)", "setting": "[2]; [5]", "result": "significantly reduced"},
      {"measurement": "lung resistance (RL)", "setting": "[2]; [5]", "result": "significantly reduced"},
      {"measurement": "IL-5 producing lung ILC2s (intracellular cytokine assay)", "setting": "[2]; [6]", "result": "significantly decreased"},
      {"measurement": "IL-13 producing lung ILC2s (intracellular cytokine assay)", "setting": "[2]; [6]", "result": "significantly decreased"}
    ]}
  ]
}
